Measurements: US20160115540A1, “PRODRUGS AND DRUGS” (Biogen MA Inc., priority 2013, published 2016)
Structures can show the parent of a compound that is named as a salt.

Tested on: lymph node
Experiment: Transcriptional profiling, chronic dosing, EAE mice: lymph node
Assay type: in vivo
Details: for Number of differentially expressed genes identified: Lymph Node: EAE, Chronic Dosing
Text: EAE induction is generally performed by immunization with brain extracts, CNS proteins (such as myelin basic protein), or peptides from such protein emulsified in an adjuvant such as complete Freund's adjuvant, e.g., as described in Linker et al., Brain. 2011 March 134(Pt3): 678-92. […] FIG. 17 depicts exemplary immunophenotyping panels used to analyze various immune cell populations (e.g., T cells, T regulatory cells, NK cells, B cells, myeloid cells). […] The number of independent mice whose tissues were harvested for transcript profiling studies and whose data passed QC is shown in TABLE 15. Animals were exposed to CO2 and whole blood collected via cardiac puncture. Two 100 μl aliquots of whole blood were collected in 1.5 mL microcentrifuge tubes and snap frozen in liquid nitrogen. Peripheral (liver, spleen, kidney and jejunum) and CNS brain (cerebellum, hippocampus, striatum and cortex) tissues were harvested and snap frozen in liquid nitrogen, with special care taken to collect tissues of similar size and from the same location. All samples were stored at -80° C. until RNA extraction was conducted. For RNA preparation, frozen tissues were placed in 2 mL RNAse-free 96-well blocks with 1.5 mL QIAzol Lysis Reagent (QIAgen) and a 3.2 mm stainless steel bead (BioSpec Products, Bartlesville, Okla.). Tissues were disrupted for four cycles of 45 seconds in a Mini-Beadbeater (Biospec Products). RNA was extracted in chloroform and the aqueous phase was mixed with an equal volume of 70% ethanol. Extracted RNA was applied to RNeasy 96 plates and purified by the spin method according to the manufacturer's protocol (RNeasy 96 Universal Tissue Protocol, QIAgen, Hilden Germany). […] Washing and staining of the hybridized arrays were completed as described in the GeneChip Expression analysis technical manual for HT plate arrays using the Genechip® Array Station (Affymetrix, Santa Clara, Calif.) with modifications as described in […] et al. The processed GeneChip® plate arrays were scanned using GeneTitan scanner (Affymetrix, Santa Clara, Calif.). Affymetrix scans were subject to quality control (QC) measures. These tests included a visual inspection of the distribution of raw signal intensities and an assessment of RNA degradation, relative log expression (RLE), and normalized unscaled standard error (NUSE). All sample scans that passed these QC metrics were included in the analysis. All CEL files were subjected to GC-content-based Robust Multi-array Average (GCRMA) normalization (version 2.20.0) (Irizarry R A, et al. Nucleic Acids Res 2003; 31:e15; Li C, et al. Genome Biol 2001; 2:[…]0032). […] Stat Appl Genet Mol Biol 2004; 3:Article3). […] Springer Science+Business Media 2005). Changes in gene expression were studied by applying a linear modeling approach to fit gene expression levels according to the defined groups of samples (e.g. DMF-, MMF-, and Vehicle-treated animals) and Bayesian posterior error analysis as implemented by Smyth (Smyth G K. Stat Appl Genet Mol Biol 2004; 3:Article3). The comparisons considered included: DMF-vs-MMF, DMF-vs-Vehicle, MMF-vs-Vehicle, and Vehicle-vs-Naïve.

[1] = lymph node, 100DMF-vs-90MMF, 7 h
[2] = lymph node, 100DMF-vs-90MMF, 12 h
[3] = lymph node, 100DMF-vs-Veh, 12 h
[4] = lymph node, 100MMF-vs-Veh, 12 h

## COC(=O)/C=C/C(=O)OC [DMF, dimethyl fumarate]
100 mpk DMF-vs-90 mpk MMF, 7 h after last dosing
  Number of differentially expressed genes identified: Lymph Node: 2
100 mpk DMF-vs-90 mpk MMF, 12 h after last dosing
  Number of differentially expressed genes identified: Lymph Node: 6
100 mpk DMF-vs-Vehicle, 7 h after last dosing
  Number of differentially expressed genes identified: Lymph Node: 14
100 mpk DMF-vs-Vehicle, 12 h after last dosing
  Number of differentially expressed genes identified: Lymph Node: 8
[1]
  FC BC005685 (1426188_PM_s_at): −1.54
  FC Slc10a6 (1428776_PM_at): −1.52
[2]
  FC 1442025_PM_a_at (no gene symbol): 2.64
  FC 1442026_PM_at (no gene symbol): 2.92
  FC Angptl4 (1417130_PM_s_at): 2.93
  FC Cpt1a (1460409_PM_at): 1.56
  FC Klf11 (1437241_PM_at): 1.91
  FC Zbtb16 (1419874_PM_x_at): 2.14
Lymph node, 100DMF-vs-Veh, 7 h
  FC Clec4e (1420330_PM_at): 1.55
  FC Clec4d (1420804_PM_s_at): 1.85
  FC Gdf3 (1449288_PM_at): −1.57
  FC Mmp12 (1449153_PM_at): 3.33
  FC Nqo1 (1423627_PM_at): 2.79
  FC Osgin1 (1424022_PM_at): 1.54
  FC Rnf128 (1449036_PM_at): 1.71
  FC Slc11a1 (1420361_PM_at): 1.57
  FC Srxn1 (1419942_PM_at): 1.98
  FC Srxn1 (1426875_PM_s_at): 1.83
  FC Tnfaip2 (1416273_PM_at): 1.82
  FC Tnfaip2 (1438855_PM_x_at): 1.52
  FC Ugt1a1 /// Ugt1a10 /// Ugt1a2 /// Ugt1a5 /// Ugt1a6a /// Ugt1a6b /// Ugt1a7c /// Ugt1a9 (1424783_PM_a_at): 1.52
  FC Ugt1a1 /// Ugt1a10 /// Ugt1a2 /// Ugt1a5 /// Ugt1a6a /// Ugt1a6b /// Ugt1a7c /// Ugt1a9 (1426261_PM_s_at): 1.62
[3]
  FC 1442025_PM_a_at (no gene symbol): 2.35
  FC 1442026_PM_at (no gene symbol): 2.48
  FC Clec4d (1420804_PM_s_at): 2.19
  FC Gzmk (1422280_PM_at): 1.92
  FC Npas2 (1421037_PM_at): 1.53
  FC Nqo1 (1423627_PM_at): 1.70
  FC Ugt1a1 /// Ugt1a10 /// Ugt1a2 /// Ugt1a5 /// Ugt1a6a /// Ugt1a6b /// Ugt1a7c /// Ugt1a9 (1424783_PM_a_at): 1.56
  FC Zbtb16 (1419874_PM_x_at): 2.07
Lymph node, chronically dosed EAE mice, 12 h after final dosing
  Zbtb16 transcript signal, DMF-treated compared to MMF-treated animals: increased signal

## COC(=O)/C=C/C(=O)O [MMF, monomethyl fumarate]
90 mpk MMF-vs-Vehicle, 7 h after last dosing
  Number of differentially expressed genes identified: Lymph Node: 21
90 mpk MMF-vs-Vehicle, 12 h after last dosing
  Number of differentially expressed genes identified: Lymph Node: 7
Lymph node, 100MMF-vs-Veh, 7 h
  FC BC005685 (1426188_PM_s_at): 1.54
  FC C78662 (1442498_PM_at): 1.68
  FC Clec4e (1420330_PM_at): 2.02
  FC Clec4e (1420331_PM_at): 1.80
  FC Clec4d (1420804_PM_s_at): 2.40
  FC Ctgf (1416953_PM_at): 2.34
  FC Hs3st1 (1423450_PM_a_at): 1.72
  FC Il1f9 1425958_PM_at: 1.86
  FC Mmp12 (1449153_PM_at): 5.16
  FC Nqo1 (1423627_PM_at): 2.59
  FC Osgin1 (1424022_PM_at): 1.50
  FC Pla2g7 (1430700_PM_a_at): 1.67
  FC Rnf128 (1449036_PM_at): 1.81
  FC Slc11a1 (1420361_PM_at): 1.57
  FC Slc40a1 1448566_PM_at: 1.87
  FC Slc40a1 (1417061_PM_at): 1.80
  FC Srxn1 (1419942_PM_at): 1.93
  FC Srxn1 (1426875_PM_s_at): 1.80
  FC Tnfaip2 (1416273_PM_at): 1.86
  FC Tnfaip2 (1438855_PM_x_at): 1.55
  FC Ugt1a1 /// Ugt1a10 /// Ugt1a2 /// Ugt1a5 /// Ugt1a6a /// Ugt1a6b /// Ugt1a7c /// Ugt1a9 (1426261_PM_s_at): 1.55
[4]
  FC Ccl3 (1419561_PM_at): 2.22
  FC Clec4d (1420804_PM_s_at): 2.43
  FC Kcne3 (1418499_PM_a_at): 1.56
  FC Mmp9 (1416298_PM_at): 1.82
  FC Mmp12 (1449153_PM_at): 3.95
  FC Npas2 (1421037_PM_at): 1.56
  FC Tnfaip2 (1416273_PM_at): 1.54
